Data on six molecules can be found in patent US5663152A, “Potentiators for aminoglycosides” (Asahi Kasei Kogyo Kabushiki Kaisha, priority 1995, dated 1997).

≈ marks a conversion by molar mass, not a printed value. Read-outs that look alike come from different tables or passages of the source.

As a reminder, the MIC is the smallest concentration in the dilution series that meets the test's criterion for growth inhibition. Broadly, the MBC is the lowest tested concentration that kills the bacteria rather than only halting them.

The subject of data set [1] is Methicillin-resistant Staphylococcus aureus (ATCC 33591). The data set is described as follows: Minimum inhibitory concentration by broth dilution, MRSA (ATCC 33591). Type of data set: cell-based. Conditions: substance alone, 2 days at 37° C.; for MIC: Staphylococcus aureus, 48 h. The source says: (§1) Microorganism strains were supplied by the ATCC. Staphylococcus aureus is a clinically significant member of the gram-positive group of bacterial pathogens. It gives rise to serious infections, and may produce bacteremia, endocarditis, and meningitis. Methicillin-resistant strains of Staphylococcus aureus were chosen for evaluation because they present a significant medical problem, in view of the fact that methicillin is the drug of choice for treatment of S. aureus infection in the common penicillin-resistant strains.
(§2) The MICs were determined by the broth dilution method (Kubo et al. J. Agric. Food Chem. 1992, 40, 245-248). Test compounds were dissolved in Di-Methyl Formamide("DMF") to make stock solution at concentrations of 80, 40, 20, or 10 mg/ml depending upon the potency and solubility. An aliquot of 0.01 ml of the stock solution was added to a tube containing 0.99 ml of media to get the initial concentration of testing solution. Serial two-fold dilutions were made by mixing 0.5 ml of testing solution with 0.5 ml of blank medium. A 0.5 ml aliquot of diluted inoculum containing an appropriate concentration of the test microorganism (1:100 dilution of the initial inoculum) was then added into each tube containing 0.5 ml serial dilutions of the test compound. After incubating for 2 days at 37° C., the tube was evaluated for visible growth. The MIC was determined as the lowest concentration of a compound which prevented visible microorganism growth. A culture growth control without compound (solvent only) and several culture sensitive reference agents were used as positive controls. The assays were performed in duplicate.

Data set [2] shares this test system. The data set is described as follows: Minimum biocidal concentration, MRSA (ATCC 33591). The class given is cell-based. The following applies: substance alone, >99.9 percent decrease of inoculum; for MBC: Staphylococcus aureus.
Description: as §1
(§3) After determining the MIC, 0.1 ml of a ten-fold dilution from each tube showing no turbidity was plated onto chemical free nutrient agar plates. After 24 hours of incubation, the colonies were counted. The MBC was the lowest concentration of antibacterial compound that decreased the initial inoculum population by >99.9 percent. The initial population for E. coli. was 1×10^7 -6×10^7 colony forming units (CFU) per ml; for P. aeruginosa was 1×10^6 -5×10^6 CFU per ml; and for methicillin-resistant Staphylococcus aureus (MRSA) was 2×10^6 -7×10^6 CFU per ml.

The conditions of data set [3]: in words; cited from earlier work.
The test system of data set [4] is gram-negative and gram-positive organisms. The following applies: in words, cited from earlier work.
Data set [5] concerns aminoglycoside-inactivating enzymes. Conditions: in words; cited from earlier work.
For data set [6], the system named is Escherichia coli (ATCC 10536). The data set is described as follows: Minimum inhibitory concentration by broth dilution, Escherichia coli (ATCC 10536). Type of data set: cell-based. The following applies: for MIC: Escherichia coli, ATCC10536, 48 h, read-out: MIC Alone.
Description: as §1
(§4) Escherichia coli is also a gram-negative pathogenic bacillus which may cause enteritis, peritonitis, or cystitis.
as §2

Data set [7] concerns Escherichia coli (ATCC 10536). The data set is described as follows: Minimum biocidal concentration, Escherichia coli (ATCC 10536). Type of data set: cell-based. Conditions: for MBC: Escherichia coli.
Description: as §1, §4, §3

Data set [8] deals with Pseudomonas aeruginosa (ATCC 10145). Description: Minimum inhibitory concentration by broth dilution, Pseudomonas aeruginosa (ATCC 10145). Type of data set: cell-based. The following applies: for MIC: Pseudomonas aeruginosa, ATCC10145, 48 h, read-out: MIC Alone.
Description: as §1
(§5) Pseudomonas aeruginosa was also chosen for evaluation. P. aerugtnosa is a gram-negative pathogenic bacillus which may cause urinary tract infections or pneumonia.
as §2

The test system is the same in data set [9]. The data set is described as follows: Minimum biocidal concentration, Pseudomonas aeruginosa (ATCC 10145). Type of data set: cell-based. Conditions: for MBC: Pseudomonas aeruginosa, ATCC10145, read-out: MBC Alone.
Description: as §1, §5, §3

For data set [10] the following is noted: occurring in foods, routinely consumed in the diet; in words; cited from earlier work.
The mark [11] stands for this setting: MRSA ATCC 33591, read-out: MIC Alone.
[12] abbreviates: MRSA ATCC 33591, read-out: MBC Alone.
Setting [13] is: E. coli ATCC 10536, substance alone, 2 days at 37° C.
Setting [14] is: read-out: MIC Alone, MRSA ATCC 33591.
The mark [15] stands for this setting: read-out: MBC Alone, MRSA ATCC 33591.

Regarding `NCC[C@H](O)C(=O)N[C@@H]1C[C@H](N)[C@@H](O[C@H]2O[C@H](CN)[C@@H](O)[C@H](O)[C@H]2O)[C@H](O)[C@H]1O[C@H]1O[C@H](CO)[C@@H](O)[C@H](N)[C@H]1O` [Amikacin], in [1] (setting [11]), the MIC was 200 µg/mL (≈ 0.342 mM). The MBC in data set [2] (setting [12]) was determined as 200 µg/mL (≈ 0.342 mM). Further, in data set [3], the side effects result was “strong side effects, such as nephrotoxicity, ototoxicity, or neuromuscular blockade”. Further, the “antibacterial activity in vitro” value in data set [4] was “broad range of activity against gram-negative and gram-positive organisms”. In [5], the “degradation by aminoglycoside-inactivating enzymes” value was “resists degradation by most aminoglycoside-inactivating enzymes”.

As to `NC[C@H]1O[C@H](O[C@H]2[C@H](O)[C@@H](O[C@H]3O[C@H](CO)[C@@H](O)[C@H](N)[C@H]3O)[C@H](N)C[C@@H]2N)[C@H](N)C[C@@H]1O` [Tobramycin], the MIC in [1] (setting [11]) worked out at 800 µg/mL (≈ 1.71 mM). Besides, in [2] (setting [12]), the MBC was 1600 µg/mL (≈ 3.42 mM). For the same molecule, in data set [3], the side effects entry was “strong side effects, such as nephrotoxicity, ototoxicity, or neuromuscular blockade”. The mode of action result in data set [4] (in vitro tests) was “bactericidal and that it acts by interfering with protein synthesis in bacterial cells”. Further, the “antibacterial activity in vitro” value in data set [4] was “broad range of activity against gram-negative and gram-positive organisms”.

With Gentamicin [reference compound], the “MIC Alone” value in [6] (setting [13]) was 0.78 µg/mL; in data set [8] (P. aeruginosa ATCC 10145, substance alone, 2 days at 37° C.) it was 0.39 µg/mL; in data set [1] (MRSA ATCC 33591), 1.56 µg/mL. Further, the “MBC Alone” value in [7] (E. coli ATCC 10536, substance alone, >99.9 percent decrease of inoculum) was found to be 0.78 µg/mL; in data set [9] (P. aeruginosa ATCC 10145, substance alone, >99.9 percent decrease of inoculum), 0.78 µg/mL; in [2] (MRSA ATCC 33591), 1.56 µg/mL. Further, the side effects result in data set [3] is “strong side effects, such as nephrotoxicity, ototoxicity, or neuromuscular blockade”.

On to `c1ccc2[nH]ccc2c1` [Indole, indole], for which the values for the MIC in [6], in [8] and in [1] (setting [14]) were 800 µg/mL (≈ 6.83 mM), 400 µg/mL (≈ 3.41 mM) and 800 µg/mL (≈ 6.83 mM), respectively. Moreover, the MBC in data set [7] (ATCC10536, read-out: MBC Alone) was 800 µg/mL (≈ 6.83 mM); in data set [9], 800 µg/mL (≈ 6.83 mM); in [2] (setting [15]) it was 1600 µg/mL (≈ 13.7 mM). In [10], the toxicity of potentiators result is “routinely consumed in the diet without apparent harm”.

As for `CC=Cc1ccc(OC)cc1` [Anethole, anethole], the MIC in data set [6] (setting [13]) was 400 µg/mL (≈ 2.7 mM); in data set [1] (setting [11]), over 1600 µg/mL. In addition, the MBC was 800 µg/mL (≈ 5.4 mM) in [7] (ATCC10536, E. coli ATCC 10536, substance alone, >99.9 percent decrease of inoculum, read-out: MBC Alone) and over 1600 µg/mL in data set [2] (setting [12]). The toxicity of potentiators entry in data set [10] is “routinely consumed in the diet without apparent harm”.

With `CCCC=CC=O` [2-Hexenal, 2-hexenal], the MIC in data set [6] amounted to 200 µg/mL (≈ 2.04 mM); in [8], 200 µg/mL (≈ 2.04 mM); in data set [1] (setting [14]) it was 400 µg/mL (≈ 4.08 mM). Also, the MBC turned out to be 200 µg/mL (≈ 2.04 mM) in data set [7] (ATCC10536, read-out: MBC Alone); 200 µg/mL (≈ 2.04 mM) in [9]; 800 µg/mL (≈ 8.15 mM) in [2] (setting [15]). Further, in [1] (MRSA ATCC 33591), the “MIC Alone” value turned out to be 200 µg/mL (≈ 2.04 mM). Besides, the “MBC Alone” value in data set [2] (MRSA ATCC 33591) was 400 µg/mL (≈ 4.08 mM). In addition, the toxicity of potentiators result in [10] was “routinely consumed in the diet without apparent harm”.
